Literature values in patent US20140371322A1, “Phenoxybenzamine Transdermal Composition” (PROFESSIONAL COMPOUNDING CENTERS OF AMERICA, priority 2013, published 2014).

Experiments:
[1] = weak base

Which results are given for `CC(COc1ccccc1)N(CCCl)Cc1ccccc1` (centres unmarked) [phenoxybenzamine]?
pka (dissociation constant) [1]: 6.58; octanol/water log P partition coefficient: 4.6
